“And” between values parts separate entries of the source, which are not always exact repeats. Equal entries are not always repeated. No end group written: not given here.

For series [1], the system named is CCL39 cells. Nature of the series: Polyfection in the presence of glycerol, CCL39 cells. It counts as cell-based, hamster. The note with it: glycerol 0.23 M, charge ratio 2.2, 5 h30. The procedure: Further, by way of comparison, transfection was carried out in the presence of polyethylene […] (PEI), 25 kDa (Aldrich, St Louis, Mo.) in a charge ratio of 2.2 in the presence of glycerol and 5 in the absence of glycerol.

In series [2] the test system is cells in culture. Nature of the series: Cell penetration of polypeptide-streptavidin vectors coupled to enzymes. The note with it: 2 hours of culture, complete culture medium.
For series [3], the system named is CCL39 cells. The format is cell-based, hamster. The note with it: CCL39, complete medium, no auxiliary agent. The procedure:
CCL39 cells (hamster fibroblasts) (5×10^4 cells) were placed in 24 well culture plates for 18 hours before transfection in MEM+10% FCS (foetal calf serum) culture medium. Transfections were carried out in MEM+10% FCS with no other auxiliary agent (CHLOROQUINE). The peptide-PL and free polylysine PL (corresponding to 19 lysines) were complexed with the pCMVLUC plasmid (respectively 24 μg and 70 μg per 6 μg of plasmid) for 30 minutes. The complex was then added dropwise to the CCL39. After incubating for 5 hours, the medium was replaced with fresh medium. Luciferase expression was assayed 24 hours later. The cells were washed twice with PBS. After washing, the cells were lysed with 100 μl of lyse buffer (PROMEGA) for 10-15 minutes. The cells were then centrifuged for 7 minutes at 4° C. to remove cellular debris. 20 μl of this lysate was mixed with 100 μl of luciferase buffer (PROMEGA). The relative luciferase units (RLU) were recorded on a LUMAT LB9501 (BERTHOLD). The protein concentration was determined using a BIORAD PROTEIN ASSAY-1 kit and the amount of luciferase in each sample was normalised per mg of protein, each transfection being carried out three times.

The subject of series [4] is PV1/Mahoney. The format is cell-based, polio virus type 1. The note with it: peptide 25 μg/ml, day 5.
Series [5] has as its system PV1/Sabin. It counts as cell-based, polio virus type 1.
Series [6] deals with CMV Ad169 strain. Nature of the series: Inhibition of cytomegalovirus (CMV) replication (morphology, plaque counting, Western blot). It counts as cell-based.
The test system of series [7] is HSV-1 TK^+ virus. Nature of the series: microbe, parasite or virus in culture. The format is cell-based, Herpes Virus Simplex type I. The note with it: HSV1 TK^+.
The subject of series [8] is HSV-1 TK^− virus. Nature of the series: microbe, parasite or virus in culture. The following applies: HSV1 TK^−. The format is cell-based, Herpes Virus Simplex type I.
Series [9] deals with 3T3 cells.
The test system of series [10] is PtK2 fibroblasts. Nature of the series: Study of the penetration of biotinylated polypeptides into cells (peroxidase coloration). The format is cell-based. The note with it: after 1 hour of culture, biotinylated polypeptide 5-20 μg/ml. The procedure:
Cultured PtK2 fibroblasts seeded the day before in an amount of 5×10^4 cells per well onto glass sheets, are incubated at 37° C., 1-18 hours in complete RPMI 1640 culture medium (or DMEM) (10% foetal calf serum, 2 mM L-glutamine and 1 mM of sodium pyruvate) containing a biotinylated polypeptide of the invention (5-20 μg/ml) The cells were then washed with PBS and fixed with 2% of p-formaldehyde at 4° C. for 10 minutes then washed with PBS. The cells were then incubated with a solution of streptavidin conjugated with 5 μg/ml of peroxidase in PBS for 30 minutes, then washed with PBS and incubated in the peroxidase cytochemical substrate (diaminobenzidine+H2O2). After washing, the cells were examined microscopically.

The mark [11] stands for this setting: PV1/Sabin, peptide 25 μg/ml, day 5.
The mark [12] stands for this setting: Day 1, cells pretreated with 25 μg/ml.
Setting [13] is: Day 4, cells pretreated with 25 μg/ml.

Take `OCC(O)CO` [glycerol]: the “increase in polyfection (luciferase activity) induced by glycerol” value in [1] turned out to be 38 factor.
Regarding “streptavidin: control protein in native form”, the “intracellular detection of the coupled enzymes” value in series [2] is reported as “no intracellular coloration was observed”.
Consider “KKKKKKKKKKKKKKKKKKKVAYISRGGVSTYYSDTVKGRFTRQKYNKRA [K19pF4-1]”, for which the “transfection efficacy relative to polylysine alone” value in [3] is “about 1000 times”. Further, the “transfection efficacy (luciferase)” value in [3] (24 μg peptide per 6 μg pCMVLUC, 5 h incubation) is given as 2×10^6 RLU/mg of proteins. Besides, the “LOG (TITER/ML)” value in series [4] amounted to 8.75; in series [5] (setting [11]), 8. Further, the “TITER REDUCTION FACTOR” value was determined as 8 in series [4] and 32 in series [5] (setting [11]). Further, the “inhibiting effect on type 1 polio virus replication” value in [5] is listed as “more than 30 factor”. Moreover, the “inhibition of infection of cells by CMV” value in series [6] was about 100%. Moreover, the “NUMBER OF PLAQUES FORMED, Mean” value in [6] (setting [12]) is 100.0; in [6] (setting [13]), 166.7. Besides, the “NUMBER OF PLAQUES FORMED, individual determinations” value in series [6] (setting [12]) is 100 and 125 and 75; in [6] (setting [13]), 0 and 250 (2×). Further, the “% reduct'n of plaques formed” value in series [6] (setting [13]) is given as 99.5%. The “action on CMV proteins (Western blot)” value in series [6] (added to cells after viral adsorption) is “had no action”. Moreover, the “inhibition of virus replication” value in series [6] (cells treated before, and at the same time, as viral infection) came out at 99.5%. For the same compound, the “cytopathogenic effects (morphology)” value in series [6] (treated at the end of / after viral adsorption) is on record as “large”; in [6] (treated before or at the same time as the viral infection), “displayed no morphological modifications”. Also, the figures for the “appearance of CMV proteins (Western blot)” value in series [6] (treated at the same time as viral infection) and in series [6] (treated before viral infection) were “no appearance of late proteins was noted” and “the appearance of neither early proteins nor late proteins of the CMV was noted”, respectively. Also, the “CPE inhibition (AI)” value in series [7] (added H0, 5 μ/well) was 13; in series [7] (added H0, 10 μ/well) it was 30; in series [7] (added H0, 20 μ/well), 28; in series [7] (added H + 1, 5 μ/well), 10; in [7] (added H + 1, 10 μ/well), 12; in series [7] (added H + 1, 20 μ/well), 10. In addition, the “CPE inhibition (AI)” value was 13 in [7] (added H − 1, 5 μ/well); 30 in series [7] (added H − 1, 10 μ/well); 28 in [7] (added H − 1, 20 μ/well); 1 in [7] (added H − 2, 5 μ/well); 2 in [7] (added H − 2, 10 μ/well); 7 in series [7] (added H − 2, 20 μ/well). Besides, the “CPE inhibition (AI)” value in [8] (added H0, 5 μ/well) is given as 15; in series [8] (added H0, 10 μ/well) it was 25; in series [8] (added H0, 20 μ/well) it was 42; in series [8] (added H + 1, 5 μ/well) it was 1; in series [8] (added H + 1, 10 μ/well), 13; in series [8] (added H + 1, 20 μ/well) it was 1. Besides, the “CPE inhibition (AI)” value in series [8] (added H − 1, 5 μ/well) was 25; in series [8] (added H − 1, 10 μ/well), 7; in [8] (added H − 1, 20 μ/well), 47; in series [8] (added H − 2, 5 μ/well), 21; in series [8] (added H − 2, 10 μ/well) it was 5; in [8] (added H − 2, 20 μ/well) it was 25. The “toxicity of the polyplex” value in series [9] is recorded as “did not induce any toxicity”. Further, the “increase of transfection after 24 h with respect to 5 h30” value in series [9] (3T3, charge ratio R 4.4) was “about 1.3 factor”. For the same compound, the luciferase activity in series [9] (3T3, charge ratio R 4.4, incubating for 5 h30) is on record as 2-3×10^7 RLU/mg of protein.
For VAYISRGGVSTYYSDTVKGRFTRQKYNKRA [pF4.1], in series [10], the “penetration into cells (peroxidase coloration)” value is “penetrated massively and rapidly into the cells”.

The values above are taken from US7628987B2, “Vectors derived from antibodies for transferring substances into cells” (Institut Pasteur, priority 1997, dated 2009).
